Values of other authors in US11559495B1, “Icariin nano-pharmaceutical formulation” (King Abdulaziz University, priority 2022, dated 2023).

Assays:
[1] = target: cGMP-specific phosphodiesterase type 5 (PDE5) (Homo sapiens, UniProt O76074)
MAO-B = target: T1, MAO-B (Homo sapiens, UniProt P27338)
T1 sequence (P27338 1-520): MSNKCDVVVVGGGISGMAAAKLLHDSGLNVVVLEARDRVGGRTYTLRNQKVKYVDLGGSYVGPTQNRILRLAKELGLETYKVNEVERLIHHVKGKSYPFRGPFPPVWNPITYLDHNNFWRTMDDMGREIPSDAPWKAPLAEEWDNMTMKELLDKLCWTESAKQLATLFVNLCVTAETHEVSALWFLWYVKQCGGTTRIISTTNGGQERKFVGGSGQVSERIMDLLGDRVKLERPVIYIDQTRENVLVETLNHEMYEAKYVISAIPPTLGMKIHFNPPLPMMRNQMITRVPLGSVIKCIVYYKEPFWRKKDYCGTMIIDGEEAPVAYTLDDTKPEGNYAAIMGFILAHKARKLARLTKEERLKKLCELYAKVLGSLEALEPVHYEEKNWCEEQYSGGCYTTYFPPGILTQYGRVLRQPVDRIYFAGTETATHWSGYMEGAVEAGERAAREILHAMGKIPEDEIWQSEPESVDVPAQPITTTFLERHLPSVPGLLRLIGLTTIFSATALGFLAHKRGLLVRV

MAO-A = target: T2, MAO-A (Homo sapiens, UniProt P21397)
T2 sequence (P21397 1-527): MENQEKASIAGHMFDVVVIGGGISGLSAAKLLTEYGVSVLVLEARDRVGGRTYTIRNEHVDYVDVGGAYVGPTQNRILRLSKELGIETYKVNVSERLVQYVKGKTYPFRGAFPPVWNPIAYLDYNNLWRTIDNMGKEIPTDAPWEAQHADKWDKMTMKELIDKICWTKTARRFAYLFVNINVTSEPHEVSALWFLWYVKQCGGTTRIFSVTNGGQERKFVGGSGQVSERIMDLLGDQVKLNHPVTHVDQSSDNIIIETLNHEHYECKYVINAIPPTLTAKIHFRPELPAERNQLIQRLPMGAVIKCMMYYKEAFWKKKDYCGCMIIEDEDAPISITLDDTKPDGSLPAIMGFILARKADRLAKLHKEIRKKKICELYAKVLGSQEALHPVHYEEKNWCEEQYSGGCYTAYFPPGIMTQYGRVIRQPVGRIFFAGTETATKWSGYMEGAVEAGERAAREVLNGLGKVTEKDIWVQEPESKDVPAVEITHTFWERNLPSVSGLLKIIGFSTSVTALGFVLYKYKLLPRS

COc1ccc(-c2oc3c(CC=C(C)C)c(O[C@@H]4O[C@H](CO)[C@@H](O)[C@H](O)[C@H]4O)cc(O)c3c(=O)c2O[C@@H]2O[C@@H](C)[C@H](O)[C@@H](O)[C@H]2O)cc1 [ICA, 7-(β-D-Glucopyranosyloxy)-5-hydroxy-4′-methoxy-8-(3-methylbut-2-en-1-yl)-3-(α-L-rhamnopyranosyloxy)flavone]
PDE5 inhibition [1]: inhibitor
MAO-B activity inhibition (MAO-B): inhibited
MAO-A activity inhibition (MAO-A): inhibited
